In patent US8178506B2, “Oligomeric compounds and compositions for use in modulation of small non-coding RNAs” (Regulus Therapeutics Inc., priority 2003, dated 2012):
In the oligonucleotide strings, read from the 5' end, every base follows the letter of its sugar. An asterisk marks phosphorothioate; unmarked linkages are phosphodiester. Other units and linkages are bracketed, terminal groups are in braces. A string of capitals states the bases alone. e = 2'-O-(2-methoxyethyl) (MOE); [5mC] = 5-methylcytosine; d = 2'-deoxy (DNA)

Legend:
[1] = system: aP2; assay: aP2 mRNA expression in adipocytes (real-time PCR); assay type: cell-based, human; settings: for aP2 mRNA: Table 75; for AP2 (mRNA expression): adipocytes, 250 nM oligomeric compound, day nine post-transfection, relative to control (1.0)
[2] = system: PPARγ; assay: PPARγ mRNA expression in adipocytes (real-time PCR); assay type: cell-based, human; settings: for PPAR gamma (mRNA expression): adipocytes, 250 nM oligomeric compound, day nine post-transfection, relative to control (1.0)
[3] = system: HSL; assay: HSL mRNA expression in adipocytes (real-time PCR); assay type: cell-based, human; settings: for HSL (mRNA expression): adipocytes, 250 nM oligomeric compound, day nine post-transfection, relative to control (1.0)
[4] = system: HuVECs; assay: Endothelial tube formation assay in HuVECs; settings: 75 nM oligomeric compound
Protocol: In some embodiments, HUVECs are used to measure the effects of oligomeric compounds of the invention on endothelial tube formation activity. The tube formation assay is performed using an in vitro Angiogenesis Assay Kit (Chemicon International, Temecula, Calif.).
Untreated control cells receive LIPOFECTIN™ only.
Approximately fifty hours after transfection, cells are transferred to 96-well plates coated with ECMatrix™ (Chemicon International). Under these conditions, untreated HUVECs form tube-like structures. After an overnight incubation at 37° C., treated and untreated cells are inspected by light microscopy. Tube formation in cells treated with oligomeric compounds is compared to that in untreated control cells. Individual wells are assigned discrete scores from 1 to 5 depending on the extent of tube formation. A score of 1 refers to a well with no tube formation while a score of 5 is given to wells where all cells are forming an extensive tubular network.
In one embodiment, primary human umbilical vein endothelial cells (HuVECs) were used to measure the effects of oligomeric compounds targeted to miRNAs on tube formation activity. HuVECs were routinely cultured in EBM (Clonetics Corporation, Walkersville, Md.) supplemented with SingleQuots supplements (Clonetics Corporation, Walkersville, Md.). […] HuVECs are plated at 3000 cells/well in 96-well plates. One day later, cells are transfected with oligomeric compounds. The tube formation assay is performed using an in vitro Angiogenesis Assay Kit (Chemicon International, Temecula, Calif.).
ISIS 29248 and ISIS 196103 are chimeric 5-10-52′-MOE gapmer oligonucleotides. […] All cytidine residues are 5-methylcytidines. ISIS 342672 (SEQ ID NO: 789) contains 13 mismatches with respect to the mature mir-143 miRNA, and was also used as a negative control. ISIS 342672 is a uniform 2′-MOE phosphorothioate oligomeric compound 22 nucleotides in length. All cytidine residues are 5-methylcytidines.
Oligomeric compound was mixed with LIPOFECTIN™ (Invitrogen Life Technologies, Carlsbad, Calif.) in OPTI-MEM™ (Invitrogen Life Technologies, Carlsbad, Calif.) to achieve a final concentration of 75 nM of oligomeric compound and 2.25 μg/mL LIPOFECTIN™. Before adding to cells, the oligomeric compound, LIPOFECTIN™ and OPTI-MEM™ were mixed thoroughly and incubated for 0.5 hrs. Untreated control cells received LIPOFECTIN™ only. […] Compounds targeted to miRNAs were tested in triplicate, and ISIS 29848 was tested in up to six replicates. […] 100 μL of full growth medium was added to each well. Fifty hours after transfection, cells are transferred to 96-well plates coated with ECMa-trix™ (Chemicon Inter-national). Under these conditions, untreated HuVECs form tube-like structures.

[5] = system: Glut4; assay: Glut4 mRNA expression in adipocytes (real-time PCR); assay type: cell-based, human; settings: for Glut4 (mRNA expression): adipocytes, 250 nM oligomeric compound, day nine post-transfection, relative to control (1.0)
[6] = system: adipocytes; assay: Triglyceride accumulation assay in adipocytes; assay type: cell-based, human
[7] = differentiating adipocytes transfected with oligomeric compound
[8] = differentiating adipocytes transfected with oligomeric compound, Table 75
[9] = adipocytes, 250 nM oligomeric compound, relative to control (1.0), Table 15
[10] = adipocytes, 250 nM oligomeric compound, relative to control (1.0), Table 16
[11] = Table 18, differentiating adipocytes, control = treatment with ISIS 342673
[12] = Table 20, adipocyte differentiation assay as in Example 13
[13] = Table 17, differentiating adipocytes, control = treatment with ISIS 342673

327921 (antisense e[5mC]*eT*eT*e[5mC]*e[5mC]*eA*eG*eT*e[5mC]*eG*eG*eG*eG*eA*eT*eG*eT*eT*eT*eA*e[5mC]*eA) [compound 327921]
aP2 mRNA [1, 7]: 76 percentage of untreated control (UTC)
PPAR gamma mRNA [2, 8]: 75 percentage of untreated control (UTC)
HSL mRNA [3, 8]: 76 percentage of untreated control (UTC)
% Activity Relative to UTC (tube formation) ([4]; Table 57): 96.6%
GLUT4 mRNA [5, 8]: 36 percentage of untreated control (UTC)
TG (triglyceride accumulation) [6, 8]: 56 percentage of untreated control (UTC)

327920 (antisense eG*eA*eG*eA*e[5mC]*e[5mC]*e[5mC]*eA*eG*eT*eA*eG*e[5mC]*e[5mC]*eA*eG*eA*eT*eG*eT*eA*eG*e[5mC]*eT) [compound 327920]
aP2 mRNA [1, 7]: 22 percentage of untreated control (UTC)
PPAR gamma mRNA [2, 8]: 34 percentage of untreated control (UTC)
HSL mRNA [3, 8]: 14 percentage of untreated control (UTC)
% Activity Relative to UTC (tube formation) ([4]; Table 57): 41.4%
GLUT4 mRNA [5, 8]: 0 percentage of untreated control (UTC)
TG (triglyceride accumulation) [6, 8]: 20 percentage of untreated control (UTC)

327896 (antisense eA*e[5mC]*eA*eG*eT*eT*e[5mC]*eT*eT*e[5mC]*eA*eA*e[5mC]*eT*eG*eG*e[5mC]*eA*eG*e[5mC]*eT*eT) [compound 327896]
aP2 mRNA [1, 7]: 43 percentage of untreated control (UTC)
PPAR gamma mRNA [2, 8]: 52 percentage of untreated control (UTC)
HSL mRNA [3, 8]: 37 percentage of untreated control (UTC)
% Activity Relative to UTC (tube formation) ([4]; Table 56): 64.3%
GLUT4 mRNA [5, 8]: 35 percentage of untreated control (UTC)
TG (triglyceride accumulation) [6, 8]: 22 percentage of untreated control (UTC)

327927 (antisense eT*eG*eT*eA*eA*eA*e[5mC]*e[5mC]*eA*eT*eG*eA*eT*eG*eT*eG*e[5mC]*eT*eG*e[5mC]*eT*eA) [compound 327927]
AP2 mRNA [1, 7]: 114 percentage of untreated control (UTC)
PPAR gamma mRNA [2, 7]: 108 percentage of untreated control (UTC)
HSL mRNA [3, 7]: 120 percentage of untreated control (UTC)
% Activity Relative to UTC (tube formation) ([4]; Table 58): 59.3%
GLUT4 mRNA [5, 7]: 120 percentage of untreated control (UTC)
TG (triglyceride accumulation) [6, 7]: 125 percentage of untreated control (UTC)

327905 (antisense e[5mC]*eA*eG*eA*e[5mC]*eT*e[5mC]*e[5mC]*eG*eG*eT*eG*eG*eA*eA*eT*eG*eA*eA*eG*eG*eA) [compound 327905]
AP2 (mRNA expression) ([1]; Table 15): 1.14
AP2 (mRNA expression) ([1]; Table 16): 0.68
PPAR gamma (mRNA expression) ([2]; Table 15): 0.54
PPAR gamma (mRNA expression) ([2]; Table 16): 0.83
HSL (mRNA expression) ([3]; Table 15): 1.11
HSL (mRNA expression) ([3]; Table 16): 0.69
% Activity Relative to UTC (tube formation) ([4]; Table 57): 48.3%
Glut4 (mRNA expression) ([5]; Table 15): 0.84
Glut4 (mRNA expression) ([5]; Table 16): 0.40
TG (triglyceride accumulation) [6, 9]: 0.69
TG (triglyceride accumulation) [6, 10]: 0.58

327887 (antisense eG*e[5mC]*eG*eA*e[5mC]*e[5mC]*eA*eT*eG*eG*e[5mC]*eT*eG*eT*eA*eG*eA*e[5mC]*eT*eG*eT*eT*eA) [compound 327887]
aP2 mRNA [1, 7]: 60 percentage of untreated control (UTC)
PPAR gamma mRNA [2, 8]: 81 percentage of untreated control (UTC)
HSL mRNA [3, 8]: 53 percentage of untreated control (UTC)
% Activity Relative to UTC (tube formation) ([4]; Table 56): 57.1%
GLUT4 mRNA [5, 8]: 43 percentage of untreated control (UTC)
TG (triglyceride accumulation) [6, 8]: 54 percentage of untreated control (UTC)

327922 (antisense eT*e[5mC]*eA*eG*eT*eT*eT*eT*eG*e[5mC]*eA*eT*eG*eG*eA*eT*eT*eT*eG*e[5mC]*eA*e[5mC]*eA) [compound 327922]
AP2 (mRNA expression) ([1]; Table 15): 0.99
AP2 (mRNA expression) ([1]; Table 16): 0.75
PPAR gamma (mRNA expression) ([2]; Table 15): 1.37
PPAR gamma (mRNA expression) ([2]; Table 16): 0.80
HSL (mRNA expression) ([3]; Table 15): 0.95
HSL (mRNA expression) ([3]; Table 16): 0.72
% Activity Relative to UTC (tube formation) ([4]; Table 57): 89.7%
Glut4 (mRNA expression) ([5]; Table 15): 1.75
Glut4 (mRNA expression) ([5]; Table 16): 0.43
TG (triglyceride accumulation) [6, 9]: 1.09
TG (triglyceride accumulation) [6, 10]: 0.43

328677 (eT*e[5mC]*e[5mC]*eT*eG*dG*dA*dT*dG*dA*dT*dA*dT*d[5mC]*dT*eA*e[5mC]*e[5mC]*eT*e[5mC]; antisense) [compound 328677]
AP2 mRNA [1, 7]: 61 percentage of untreated control (UTC)
PPAR gamma mRNA [2, 7]: 89 percentage of untreated control (UTC)
HSL mRNA [3, 7]: 68 percentage of untreated control (UTC)
GLUT4 mRNA [5, 7]: 44 percentage of untreated control (UTC)
TG (triglyceride accumulation) [6, 7]: 34 percentage of untreated control (UTC)

328114 (antisense eA*eA*eT*e[5mC]*eT*e[5mC]*eA*eT*eT*eT*eT*e[5mC]*eA*eT*eA*e[5mC]*eT*eT*eG*e[5mC]*eA) [compound 328114]
AP2 mRNA [1, 11]: 94.4 percentage of control
AP2 mRNA [1, 7]: 123 percentage of untreated control (UTC)
PPAR gamma mRNA [2, 11]: 89.3 percentage of control
PPAR gamma mRNA [2, 7]: 106 percentage of untreated control (UTC)
HSL mRNA [3, 11]: 93.3 percentage of control
HSL mRNA [3, 7]: 134 percentage of untreated control (UTC)
GLUT4 mRNA [5, 11]: 114.9 percentage of control
GLUT4 mRNA [5, 7]: 116 percentage of untreated control (UTC)
TG (triglyceride accumulation) [6, 11]: 117.3 percentage of control
TG (triglyceride accumulation) [6, 7]: 110 percentage of untreated control (UTC)

340927 (antisense eT*eG*eA*eG*e[5mC]*dT*dA*d[5mC]*dA*dG*dT*dG*d[5mC]*dT*dT*e[5mC]*eA*eT*e[5mC]*eT*e[5mC]*eA) [compound 340927]
AP2 [1, 12]: 0.77
PPAR gamma [2, 12]: 0.36
HSL [3, 12]: 0.73
Glut4 [5, 12]: 0.54
TG [6, 12]: 0.65

328129 (antisense eA*eG*e[5mC]*e[5mC]*eT*e[5mC]*e[5mC]*eT*eT*e[5mC]*eT*eT*e[5mC]*eT*e[5mC]*eG*eT*eA*e[5mC]*eT*eA) [compound 328129]
AP2 mRNA [1, 13]: 67.6 percentage of control
aP2 mRNA [1, 7]: 54 percentage of untreated control (UTC)
PPAR gamma mRNA [2, 13]: 71.8 percentage of control
PPAR gamma mRNA [2, 8]: 59 percentage of untreated control (UTC)
HSL mRNA [3, 13]: 56.5 percentage of control
HSL mRNA [3, 8]: 34 percentage of untreated control (UTC)
GLUT4 mRNA [5, 13]: 60.0 percentage of control
GLUT4 mRNA [5, 8]: 36 percentage of untreated control (UTC)
TG (triglyceride accumulation) [6, 13]: 53.8 percentage of control
TG (triglyceride accumulation) [6, 8]: 19 percentage of untreated control (UTC)

328105 (antisense e[5mC]*e[5mC]*eT*e[5mC]*eA*eA*eT*eT*eA*eT*eT*eG*eG*eA*eA*eA*eT*e[5mC]*eA*e[5mC]*eA) [compound 328105]
AP2 mRNA [1, 11]: 88.2 percentage of control
aP2 mRNA [1, 7]: 102 percentage of untreated control (UTC)
PPAR gamma mRNA [2, 11]: 93.3 percentage of control
PPAR gamma mRNA [2, 8]: 85 percentage of untreated control (UTC)
HSL mRNA [3, 11]: 94.2 percentage of control
HSL mRNA [3, 8]: 95 percentage of untreated control (UTC)
GLUT4 mRNA [5, 11]: 94.2 percentage of control
GLUT4 mRNA [5, 8]: 75 percentage of untreated control (UTC)
TG (triglyceride accumulation) [6, 11]: 93.1 percentage of control
TG (triglyceride accumulation) [6, 8]: 82 percentage of untreated control (UTC)

341800 (antisense AAGCCCAAAAGGAGAAUUCUUUG; all 2'-MOE, all phosphorothioate, methylation of C and T or U not given here) [compound 341800]
aP2 mRNA [1, 7]: 50 percentage of untreated control (UTC)
PPAR gamma mRNA [2, 8]: 61 percentage of untreated control (UTC)
HSL mRNA [3, 8]: 42 percentage of untreated control (UTC)
GLUT4 mRNA [5, 8]: 28 percentage of untreated control (UTC)
TG (triglyceride accumulation) [6, 8]: 18 percentage of untreated control (UTC)

340350 (antisense TGCTCAATAAATACCCGTTGAA; all 2'-MOE, all phosphorothioate, methylation of C not given here) [compound 340350]
aP2 mRNA [1, 7]: 64 percentage of untreated control (UTC)
PPAR gamma mRNA [2, 8]: 59 percentage of untreated control (UTC)
HSL mRNA [3, 8]: 45 percentage of untreated control (UTC)
GLUT4 mRNA [5, 8]: 53 percentage of untreated control (UTC)
TG (triglyceride accumulation) [6, 8]: 38 percentage of untreated control (UTC)
